Data taken from patent publication US4289775A, “Penicillins” (Karl Thomae GmbH, priority 1979, dated 1981).
≈ marks a conversion by molar mass, not a printed value.

How the values were obtained:
[1] = system: Pseudomonas aeruginosa Walter; assay: in vivo test against experimental Pseudomonas infection in mice; parameters: species or system Female NMRI mice; details: sc, 168 h, dose at which 50% of the animals survived, subcutaneous, 6 times first day, twice on second and third day, observation 7 days
Protocol: (§1) The compounds according to the invention were tested in vivo in mice against experimental infections. As pathogenic bacteria E.coli ATCC 11775 and Pseudomonas aeruginosa Walter were used. An intraperitoneal infection was induced in each mouse with 0.2 ml of a 5% mucin suspension of the bacteria corresponding to about 1.4×10^6 E. coli germs and 1.3×10^6 pseudomonas germs/mouse. Female NMRI mice were used, divided into groups of 10 animals. Two groups were untreated and the remaining groups were treated with different doses of the penicillins to be tested to determine the ED50 (dose at which 50% of the animals survived). The groups infected with E. coli were on the first day treated with the test compound three times ([…] post infectionem) and on the second day twice. The groups with the pseudomonas infection were on the first day treated with the test compound 6 times (1, 3, 5, 7, 9 and 11 hours post infectionem) and on the second and third day twice.
(§2) The observation time was in both cases 7 days.

[2] = system: Klebsiella pneumoniae 272; assay: serial dilution test in the microtiter system, MIC; type: cell-based; details: Klebs. pneum. 272, 37° C., 18-20 hours
Protocol: (§3) The tests were performed according to the method of the serial dilution test in the microtiter system. The effect of the test substances on bacteriostasis was examined in a fluid medium. The bacteristatic activity was examined at the following concentrations: 80, 40, 20, 10, 5, 2.5, 1.25, 0.6, 0.3, 0.08 and 0.01 μgm/ml.
(§4) The nutrient medium consisted of: 10 gm of peptone, 8 gm of meat extract oxoid, 3 gm of sodium chloride, and 2 gm of sec. sodium phosphate diluted with distilled water to 1000 ml (pH 7.2-7.4). Only in the test against streptococci was 1% of glucose added. The age of the primary cultures was about 20 hours. The standardization of the microorganism suspension was effected by means of a photometer according to the method of Eppendorf (test tube diameter 14 mm, filter 546 nm), using for comparison a barium sulfate suspension formed by the addition of 3.0 ml of 1% barium chloride solution to 97 ml of 1% sulfuric acid. After the standardization, the Streptococcus aronson was further diluted to a concentration of 1:15 and the other microorganisms to a concentration of 1:1500 using a sodium chloride solution. 16 mgm of the test compound were placed into a 10 ml measuring flask, and the flask was filled up to the mark with the solvent. The further dilution series was standardized with distilled water or the particular solvent.
(§5) The cavities of microtiter plates were filled with 0.2 ml of nutrient medium. Then, 0.01 ml of the appropriate test compound solution was added, followed by inoculation with 0.01 ml of the standardized microorganism suspension. The bacteria were incubated at 37° C. for 18-20 hours. Control tests using only the solvent were carried out simultaneously.
(§6) The measurement was carried out macroscopically to determine the minimum inhibitory concentration (the lowest still bacteriostatically effective concentration).
(§7) Staphylococcus aureus SG 511, Escherichia coli ATCC 9637 and 11775, Pseudomonas aeruginosa Hamburgensis, ATCC 10145 and Pseudomonas aeruginosa Walter, Serratia marcescens ATCC 13880, Klebsiella pneumoniae ATCC 10031 and 272 and Proteus mirabilis Hamburgensis.

[3] = system: Escherichia coli ATCC 11775; assay: serial dilution test in the microtiter system, MIC; type: cell-based; details: ATCC11775, E. Coli ATCC 11775, 37° C., 18-20 hours
Protocol: as §3, §4, §5, §6, §7

[4] = system: Pseudomonas aeruginosa Hamburgensis; assay: serial dilution test in the microtiter system, MIC; type: cell-based; details: Pseud. aerug. hamb., 37° C., 18-20 hours
Protocol: as §3, §4, §5, §6, §7

[5] = system: Pseudomonas aeruginosa ATCC 10145; assay: serial dilution test in the microtiter system, MIC; type: cell-based; details: ATCC10145, Pseud. aerug. ATCC 10145, 37° C., 18-20 hours
Protocol: as §3, §4, §5, §6, §7

[6] = system: Serratia marcescens ATCC 13880; assay: serial dilution test in the microtiter system, MIC; type: cell-based; details: ATCC13880, Serrat. marsec., 37° C., 18-20 hours
Protocol: as §3, §4, §5, §6, §7

[7] = system: Pseudomonas aeruginosa Walter; assay: serial dilution test in the microtiter system, MIC; type: cell-based; details: Pseud. aerug. Walter, 37° C., 18-20 hours
Protocol: as §3, §4, §5, §6, §7

[8] = system: Proteus mirabilis Hamburgensis; assay: serial dilution test in the microtiter system, MIC; type: cell-based; details: Prot. mirabilis ham., 37° C., 18-20 hours
Protocol: as §3, §4, §5, §6, §7

[9] = system: Escherichia coli ATCC 9637; assay: serial dilution test in the microtiter system, MIC; type: cell-based; details: ATCC9637, E. Coli ATCC 9637, 37° C., 18-20 hours
Protocol: as §3, §4, §5, §6, §7

[10] = system: Klebsiella pneumoniae ATCC 10031; assay: serial dilution test in the microtiter system, MIC; type: cell-based; details: ATCC10031, Klebs. pneum. ATCC 10031, 37° C., 18-20 hours
Protocol: as §3, §4, §5, §6, §7

E.coli ATCC 11775 = assay: in vivo test against experimental E. coli infection in mice; parameters: species or system Female NMRI mice; details: Escherichia coli, ATCC11775, sc, 168 h, dose at which 50% of the animals survived, subcutaneous, three times first day, twice second day, observation 7 days
Protocol: as §1, §2

| Structure (SMILES) | ED50 [1] | MIC [2] | MIC [3] | MIC [4] | MIC [5] | MIC [6] | MIC [7] | MIC [8] | MIC [9] | MIC [10] | ED50 (E.coli ATCC 11775) |
| --- | --- | --- | --- | --- | --- | --- | --- | --- | --- | --- | --- |
| CC1(C)S[C@@H]2[C@H](NC(=O)[C@H](NC(=O)Nc3cnc(NCCCO)nc3O)c3ccc(O)cc3)C(=O)N2[C@H]1C(=O)O [B, D-α-[3-(4-hydroxy-2-{3'-hydroxypropylamino-}-5-pyrimidinyl)-ureido]-p-hydroxy-benzylpenicillin sodium] | 1.2 mg/kg | 10 µg/mL | 0.6 µg/mL | 1.25 µg/mL | 1.25 µg/mL | 1.25 µg/mL | 5 µg/mL | 0.3 µg/mL | 0.6 µg/mL | 10 µg/mL | 0.8 mg/kg |
| CCOC(=O)CCNc1ncc(NC(=O)NC(C(=O)NC2C(=O)N3C2SC(C)(C)C3C(=O)O)c2ccc(O)cc2)c(O)n1 [D, D-α-[3-(2-{2'-ethoxycarbonylethylamino}-4-hydroxy-5-pyrimidinyl)-ureido]-p-hydroxy-benzylpencillin sodium] |  | 10 µg/mL | 0.6 µg/mL | 2.5 µg/mL | 2.5 µg/mL | 1.25 µg/mL | 2.5 µg/mL | 0.3 µg/mL | 0.3 µg/mL | 10 µg/mL | 4.2 mg/kg |
| CC1(C)S[C@@H]2[C@H](NC(=O)[C@H](NC(=O)N3CCNC3=O)c3ccccc3)C(=O)N2[C@H]1C(=O)O [F, azlocillin, reference compound] |  | 40 µg/mL (≈ 86.7 µM) |  |  |  | 5 µg/mL (≈ 10.8 µM) |  | 1.25 µg/mL (≈ 2.71 µM) |  | 40 µg/mL (≈ 86.7 µM) |  |
| COCCNc1ncc(NC(=O)N[C@@H](C(=O)N[C@@H]2C(=O)N3[C@@H]2SC(C)(C)[C@@H]3C(=O)O)c2ccc(O)cc2)c(O)n1 [A, D-α-[3-(4-hydroxy-2-{2'-methoxyethylamino}-5-pyrimidinyl)-ureido]-p-hydroxybenzyl-penicillin sodium] | 1.5 mg/kg | 40 µg/mL | 1.25 µg/mL | 1.25 µg/mL | 1.25 µg/mL | 0.6 µg/mL | 5 µg/mL | 0.6 µg/mL | 1.25 µg/mL | 20 µg/mL | 2 mg/kg |
